In patent US9579329B2, “Use of estetrol as emergency contraceptive” (Estetra S.P.R.L., priority 2011, dated 2017):
Like-named read-outs stand apart in the source and are kept apart here.

What was measured:
[1] = tested on: ovulation in four-day cyclic rats; experiment: Anti-ovulatory effect in four-day cyclic rats, oral twice daily for four days, ova per oviduct counted; format: in vivo, rat; conditions: for ED50: Rattus norvegicus, po, 96 h, four-day cyclic rats; for rats with ovulation inhibited: Days 1-4, 8 rats per group
Description: Vaginal smears from female rats were obtained daily for two weeks prior to the start of treatment to identify four-day cycling rats. All treatments were administered orally twice daily at approximately 6:30 am and 4:30 pm for four consecutive days (Days 1-4), starting on the day of estrus. One day after the final dose (Day 5), the rats were euthanized by CO2 asphyxiation at approximately 1 pm, and the number of ova per oviduct was counted by visualization under a dissecting microscope and recorded. In one study, animals (8 per group) were treated with E4 (0.03; 0.1; 0.3; 1.0 or 3.0 mg/kg) or ethinylestradiol (EE) (0.0003; 0.001; 0.003, 0.01 or 0.03 mg/kg). The control group was given the vehicle only. In another study, the antiovulatory activity of E4 was evaluated relative to that of estradiol (E2). Animals (8 per group) were treated with E4, E2 or vehicle (control group).

[2] = tested on: mated female Wistar rats; experiment: Effects of E4 on the pregnancy of the Wistar rat, oral gavage Day 6 to 17 of gestation; format: in vivo; conditions: for females observed to be hunched towards the end of gestation: seven rats per group
Description: In one study, groups of seven mated female rats were given E4 orally, by gavage, at dose levels of 30, 60 or 90 mg/kg/day from Day 6 to 17 of gestation inclusive. A similar group of seven rats was given the vehicle, 0.5% w/v carboxymethylcellulose, over the same period to act as controls. On Day 20 of gestation, the females were examined.
In another study, using the same protocol as the study above, groups of seven mated female rats were given E4 at dose levels of 0.1, 0.3, 1, 3 and 10 mg/kg/day or vehicle (controls).

[3] = tested on: healthy postmenopausal women; experiment: Safety and tolerability of a single rising oral dose in healthy postmenopausal women; format: in vivo, human; conditions: for safety and tolerability after single administration: dose up to 100 mg, humans
Description: (§1) In the present example the safety, tolerability, pharmacokinetics and pharmacodynamics of a single escalating dose of E4 (0.1, 1, 10 and 100 mg) was evaluated in healthy postmenopausal women.
(§2) A double-blind, randomized, placebo-controlled, single rising dose study (0.1, 1, 10 and 100 mg of E4) was performed in healthy postmenopausal women. 32 healthy postmenopausal female volunteers between 53 and 69 years of age were enrolled. Menopause was defined as ≧12 months amenorrhea or 6 months amenorrhea with serum FSH levels≧40 IU/l and serum E2<73 pmol/l. […] A total of 8 subjects were assigned to each dose group; six subjects received active treatment and two subjects received placebo.

[4] = tested on: FSH levels; experiment: Pharmacodynamics: FSH levels after a single oral dose in postmenopausal women; format: in vivo, human; conditions: 100 mg dose group
Description: as §1, §2

[5] = tested on: ovulation and pregnancy in fertile female rabbits; experiment: Prevention of pregnancy in rabbits, twice daily dosing for 14 days starting four days before mating; format: in vivo, rabbit
Description: Eighteen proven fertile female rabbits, 3 per group were dosed twice daily at approximately 12 hour intervals for 14 days starting four days before mating: Group 1: vehicle control (ASV: 0.9% sodium chloride, 0.4% polysorbate 80, 0.5% carboxymethylcellulose and 0.9% benzyl alcohol in distilled or deionised water, 1 ml/kg), Group 2: 0.01 mg/kg E4 in ASV, 1 ml/kg, Group 3: 0.03 mg/kg E4 in ASV, 1 ml/kg, Group 4: 0.1 mg/kg E4 in ASV, 1 ml/kg, Group 5: 0.3 mg/kg E4 in ASV, 1 ml/kg and Group 6: 1.0 mg/kg E4 in ASV, 1 ml/kg. Doses were determined by body weights taken the first day of dosing and were adjusted according to weights obtained one week later. Each female rabbit was bred with two proven fertile male rabbits after four days of dosing. The females were necropsied ten days later and the number of pregnancies were determined.

[6] = Pharmacokinetics of a single oral dose in healthy postmenopausal women; format: in vivo, human; conditions: for half-life: female, human, plasma, po, postmenopausal women
Description: as §1, §2
Plasma concentration profiles could not be determined in subjects of the 0.1 mg group.

[7] = tested on: estrogen-sensitive parameters related to hepatic and bone metabolism; experiment: Pharmacodynamics: estrogen-sensitive hepatic and bone metabolism parameters and endometrial stimulation in postmenopausal women; format: in vivo, human; conditions: single oral dose
Description: as §1, §2
Some fast reacting, estrogen-sensitive parameters related to hepatic and bone metabolism were determined in the 100-mg dose group only. […] Interpretation of the pharmacodynamic data must be made with care taking into consideration the small number of subjects and the single dose administration.

[8] = tested on: adult female cynomolgus monkeys; experiment: Maximum tolerated dose (MTD) study in adult female cynomolgus monkeys; format: in vivo
Description: A maximum tolerated dose (MTD) study was performed in adult female cynomolgus monkeys.
Three control animals were treated orally with vehicle, and four other animals were treated orally with E4 as a suspension in vehicle at single increasing doses of 1, 10, 100 or 1000 mg/kg on days 1, 3, 6 and 14 respectively.

[9] = tested on: plasma LH levels; experiment: Pharmacodynamics: plasma LH levels after a single oral dose in postmenopausal women; format: in vivo, human
Description: as §1, §2
The maximum mean suppression was 48% at 4 hours after dosing. A second LH trough of 45% is seen at 12 hours after dosing, synchronous with the mean E4 levels.

[10] = another study, E4 vs E2, p.o., read-out: antiovulatory ED50
[11] = 30, 60 or 90 mg/kg/day oral gavage, Day 6 to 17 of gestation
[12] = all dose groups 30, 60, 90 mg/kg/day
[13] = 0.01 mg/kg twice daily, one female failed to breed
[14] = 0.03 mg/kg twice daily, 3 animals per group
[15] = 1.0 mg/kg twice daily, 3 animals per group
[16] = single increasing oral doses 1-1000 mg/kg

Q: Which ED50 [1, 10] does the source give for `C[C@]12CC[C@@H]3c4ccc(O)cc4CC[C@H]3[C@@H]1CC[C@@H]2O` [E2, estradiol, reference compound] here?
A: 0.03 to 0.1 mg/kg

Q: Which results are given for `C[C@]12CC[C@@H]3c4ccc(O)cc4CC[C@H]3[C@@H]1[C@@H](O)[C@@H](O)[C@@H]2O` [E4, 1,3,5(10)-estratrien-3, 15α, 16α, 17β-tetrol]?
A: females observed to be hunched towards the end of gestation ([2]; 3 mg/kg/day): one female; mean body weight during treatment period ([2]; 10 mg/kg/day): overall loss in mean body weight; mean food intake ([2]; 10 mg/kg/day): reduced mean food intake; females observed to be hunched towards the end of gestation ([2]; 10 mg/kg/day): Three females; mean body weight gains over treatment period ([2]; 0.1, 0.3, 1 and 3 mg/kg/day): less than the controls; mean gravid uterus weight ([2]; 0.3, 1 and 3 mg/kg/day): reduction in mean gravid uterus weight; mean food intake over treatment period ([2]; 1 and 3 mg/kg/day): slightly lower than the control; clinical observations or necropsy findings related to treatment [2, 11]: no relevant unexpected clinical observations or necropsy findings; deaths [2, 11]: no deaths; group mean body weight over treatment period [2, 12]: Group mean body weight loss; mean food intake over treatment period [2, 12]: marked reduction in mean food intake; deaths ([2]; another study, 0.1, 0.3, 1, 3 and 10 mg/kg/day): no deaths; maternal toxicity ([2]; dose level below 3 mg/kg/day): only slight maternal toxicity; Somnolence, E = number of adverse events ([3]; 0.1 mg single oral dose, N = 6): 1; Somnolence, n = number of subjects with adverse events ([3]; 0.1 mg single oral dose, N = 6): 1; Somnolence, percentage of subjects with adverse events ([3]; 0.1 mg single oral dose, N = 6): 16.7%; Somnolence, E = number of adverse events ([3]; 1 mg single oral dose, N = 6): 1; Somnolence, n = number of subjects with adverse events ([3]; 1 mg single oral dose, N = 6): 1; Somnolence, percentage of subjects with adverse events ([3]; 1 mg single oral dose, N = 6): 16.7%; number of AEs ([3]; 10 mg group): just one AE; Myalgia, E = number of adverse events ([3]; 10 mg single oral dose, N = 6): 1; Myalgia, n = number of subjects with adverse events ([3]; 10 mg single oral dose, N = 6): 1; Myalgia, percentage of subjects with adverse events ([3]; 10 mg single oral dose, N = 6): 16.7%; number and nature of AEs versus placebo ([3]; 0.1, 1.0 and 10 mg): similar; number of AEs (all AEs and related AEs) ([3]; 100 mg): highest; Diarrhoea NOS, E = number of adverse events ([3]; 100 mg single oral dose, N = 6): 2; Diarrhoea NOS, n = number of subjects with adverse events ([3]; 100 mg single oral dose, N = 6): 2; Diarrhoea NOS, percentage of subjects with adverse events ([3]; 100 mg single oral dose, N = 6): 33.3%; Myalgia, E = number of adverse events ([3]; 100 mg single oral dose, N = 6): 2; Myalgia, n = number of subjects with adverse events ([3]; 100 mg single oral dose, N = 6): 2; Myalgia, percentage of subjects with adverse events ([3]; 100 mg single oral dose, N = 6): 33.3%; Somnolence, E = number of adverse events ([3]; 100 mg single oral dose, N = 6): 2; Somnolence, n = number of subjects with adverse events ([3]; 100 mg single oral dose, N = 6): 2; Somnolence, percentage of subjects with adverse events ([3]; 100 mg single oral dose, N = 6): 33.3%; safety and tolerability after single administration [3]: In conclusion, the results of this study showed that E4 after single administration at a dose up to 100 mg is safe and well tolerated.; safety and tolerability after single administration ([3]; listed as estetrol): safe and well tolerated; notable adverse event ([3]; one subject of the 100 mg group, not serious, mild, probably related): allergic reaction (urticaria); severe or serious adverse events ([3]; single doses 0.1, 1, 10 and 100 mg): No severe or serious adverse events; changes in ECGs, laboratory tests or vital signs ([3]; single doses 0.1-100 mg): no notable changes; maximum suppression of FSH ([4]; 48 hrs after dosing): 41%; inhibition of FSH levels ([4]; up to 168 hours (1 week) after dosing): profound and sustained inhibition; dosages that caused complete prevention of pregnancy [5]: > 0.03 mg/kg b.i.d.; N corpora lutea, total number [5, 13]: 22; N pregnancies, total number [5, 13]: 22; N corpora lutea, total number [5, 14]: 22; N pregnancies, total number [5, 14]: 21; N corpora lutea, total number ([5]; 0.1 mg/kg twice daily, 3 animals per group): 20; N corpora lutea, total number ([5]; 0.3 mg/kg twice daily, 3 animals per group): 20; N corpora lutea, total number [5, 15]: 3; N pregnancies, total number [5, 15]: 0; oral doses that induce inhibition of ovulation ([5]; oral): > 0.3 mg/kg b.i.d.; oral bioabsorption ([6]; dose range tested): high and dose-proportional; half-life ([6]; single oral dose, read-out: terminal half life (converted)): 28 h; half-life ([6]; single oral dose, read-out: terminal half life, ranges): 18 to 60 h; Cmax dose proportionality ([6]; range from 1 to 100 mg oral): proportional; AUC0-∞ dose proportionality ([6]; range from 10 to 100 mg oral): proportional to the oral dose; absorption ([6]; single oral dose): extremely fast; terminal half life and fractional clearance, effect of dose level ([6]; single oral dose): not affected by dose level; inter-subject variability of pharmacokinetic data ([6]; single oral dose, 1-100 mg): very low; rats with ovulation inhibited ([1]; 0.03 mg/kg p.o. twice daily): did not inhibit ovulation; rats with ovulation inhibited ([1]; 0.1 mg/kg p.o. twice daily): 2 of 8; rats with ovulation inhibited ([1]; 0.3 mg/kg p.o. twice daily): 5 of 8; rats with ovulation inhibited ([1]; 1.0 mg/kg p.o. twice daily): 7 of 8; rats with ovulation inhibited ([1]; 3.0 mg/kg p.o. twice daily): 8 of 8; ED50 [1, 10]: 0.204 mg/kg; endometrial stimulation (withdrawal bleeding after progestogen post treatment) [7]: No significant endometrial stimulation; animals with decreased levels of inorganic phosphorus ([8]; 1 mg/kg, the day after dosing): 3 of 4; adverse clinical sign ([8]; 1000 mg/kg oral, approximately 12 h after dosing): emesis in one E4-treated animal; animals with decreased levels of inorganic phosphorus ([8]; after the 100 mg/kg dose): all E4-treated animals; animals with decreased levels of inorganic phosphorus ([8]; after the 1000 mg/kg dose): all E4-treated animals; tolerability of single oral treatment ([8]; doses up to 1000 mg/kg): well tolerated; effects on body weight or haematological parameters [8, 16]: No effects; gross necropsy [8, 16]: did not reveal any unusual findings; liver parameters (AST, ALT) [8, 16]: no apparent test item- or dose-related findings; maximum mean suppression of LH ([9]; 4 hours after dosing, 100 mg group shown in FIG. 2): 48%; second LH trough ([9]; 12 hours after dosing, 100 mg group shown in FIG. 2): 45%; inhibition of plasma LH levels ([9]; up to 48 hours after dosing): clear dose-dependent inhibition

Q: For `C#C[C@]1(O)CC[C@H]2[C@@H]3CCc4cc(O)ccc4[C@H]3CC[C@@]21C` [EE, ethinylestradiol, reference compound], which ED50 ([1]; study E4 vs EE, p.o. twice daily, read-out: calculated antiovulatory ED50) is on record?
A: 0.01 mg/kg
